Legend:
AMBEL [1] = assay: greenhouse experiment, pre-emergence, mixtures (Example 2, Colby); assay type: in vivo, Ambrosia artemisiifolia
Excerpt: (§1) The culture containers used were plastic pots containing loamy sand with approximately 3.0% of humus as substrate. The seeds of the test plants were sown separately for each species.
(§2) For the pre-emergence treatment, the active compounds, suspended or emulsified in water, were applied directly after sowing by means of finely distributing nozzles. The containers were irrigated gently to promote germination and growth and subsequently covered with transparent plastic hoods until the plants had rooted. This cover caused uniform germination of the test plants unless this was adversely affected by the active compounds.
(§3) Depending on the species, the plants were kept at 10-25° C. and 20-35° C., respectively. The test period extended over 2 to 4 weeks. During this time, the plants were tended and their response to the individual treatments was evaluated.
(§4) Evaluation was carried out using a scale from 0 to 100. 100 means no emergence of the plants, or complete destruction of at least the above-ground parts, and 0 means no damage or normal course of growth. Good herbicidal activity is given at values of at least 70, and very good herbicidal activity is given at values of at least 85.
(§5) The respective stated components A and B, and if appropriate, C were formulated as a 10% by weight strength emulsion concentrate and, with addition of the amount of solvent system, introduced into the spray liquor used for applying the active compound. In the examples, the solvent used was water.
(§6) The test period extended over 20 and 21 days, respectively. During this time, the plants were tended, and their reaction to the treatment with active compound was monitored.
(§7) In the examples below, using the method of S. R. Colby (1967) “Calculating synergistic and antagonistic responses of herbicide combinations”, Weeds 15, p. 22ff., the value E, which is expected if the activity of the individual active compounds is only additive, was calculated. E=X+Y−(X·Y/100) • where • X=percent activity using active compound A at an application rate a; • Y=percent activity using active compound B at an application rate b; • E=expected activity (in %) by A+B at application rates a+b.
(§8) If the value found experimentally is higher than the value E calculated according to Colby, a synergistic effect is present.

BIDPI = assay: as above; assay type: in vivo, Bidens pilosa
Excerpt: as §1, §2
(§9) Depending on the species, the plants were kept at 10-25° C. and 20-35° C., respectively. […] During this time, the plants were tended and their response to the individual treatments was evaluated. […]
as §6
(§10) In the examples below, using the method of S. R. Colby (1967) “Calculating synergistic and antagonistic responses of herbicide combinations”, Weeds 15, p. 22ff., the value E, which is expected if the activity of the individual active compounds is only additive, was calculated. […]
as §8

ELEIN = assay: as above; assay type: in vivo, Eleusine indica
Excerpt: as §1, §2, §9, §6, §10, §8

SORHA = assay: as above; assay type: in vivo, Sorghum halepense
Excerpt: as §1, §2, §9, §6, §10, §8

BRAPL [2] = assay: greenhouse experiment, post-emergence, mixtures (Example 2, Colby); assay type: in vivo, Brachiaria plantaginea
Protocol: as §1
(§11) For the post-emergence treatment, the test plants were grown to a plant height of from 3 to 15 cm, depending on the plant habit, and only then treated with the active compounds which had been suspended or emulsified in water. To this end, the test plants were either sown directly and grown in the same containers, or they were first grown separately as seedlings and transplanted into the test containers a few days prior to treatment.
as §3, §4, §5, §6, §10, §8

SETFA [3] = assay: as above; assay type: in vivo, Setaria faberi
Protocol: as §1, §11, §9, §6, §10, §8

ERBVI [4] = assay: as above; assay type: in vivo, Eriochloa villosa
Protocol: as §1, §11, §9, §6, §10, §8

SORPHA = assay: as above; assay type: in vivo, Sorghum halepense
Protocol: as §1, §11, §9, §6, §10, §8

CHEAL = assay: greenhouse experiment, pre-emergence, mixtures (Example 2, Colby); assay type: in vivo, Chenopodium album
Excerpt: as §1, §2, §3, §4, §5, §6, §7, §8

AMARE = assay: as above; assay type: in vivo, Amaranthus retroflexus
Excerpt: as §1, §2, §3, §4, §5, §6, §10, §8

ALOMY [5] = assay: greenhouse experiment, post-emergence, mixtures (Example 2, Colby); assay type: in vivo, Alopercurus myosuroides
Protocol: as §1, §11, §9, §6, §10, §8

ECHCG [6] = assay: as above; assay type: in vivo, Echinocloa crus-galli
Protocol: as §1, §11, §9, §6, §10, §8

ALOMY [7] = assay: greenhouse experiment, pre-emergence, mixtures (Example 2, Colby); assay type: in vivo, Alopercurus myosuroides
Excerpt: as §1, §2, §9, §6, §10, §8

POLCO = assay: as above; assay type: in vivo, Polygonum convolvulus
Excerpt: as §1, §2, §9, §6, §10, §8

ECHCG [8] = assay: as above; assay type: in vivo, Echinocloa crus-galli
Excerpt: as §1, §2, §9, §6, §10, §8

SETVI = assay: as above; assay type: in vivo, Setaria viridis
Excerpt: as §1, §2, §9, §6, §10, §8

BRAPL [9] = assay: as above; assay type: in vivo, Brachiaria plantaginea
Excerpt: as §1, §2, §9, §6, §10, §8

ERBVI [10] = assay: as above; assay type: in vivo, Eriochloa villosa
Excerpt: as §1, §2, §9, §6, §10, §8

BRAPL [11] = assay: greenhouse experiment, post-emergence treatment (Use Examples); assay type: in vivo, Brachiaria plantaginea; settings: post-emergence method; application rate 0.025 kg/ha; scale 0 to 100
Excerpt: (§12) The culture containers used were plastic flowerpots containing loamy sand with approximately 3.0% of humus as the substrate. The seeds of the test plants were sown separately for each species.
(§13) For the post-emergence treatment, the test plants were first grown to a height of 3 to 15 cm, depending on the plant habit, and only then treated with the active ingredients which had been suspended or emulsified in water. For this purpose, the test plants were either sown directly and grown in the same containers, or they were first grown separately as seedlings and transplanted into the test containers a few days prior to treatment.
(§14) Depending on the species, the plants were kept at 10-25° C. or 20-35° C. The test period extended over 2 to 4 weeks. During this time, the plants were tended, and their response to the individual treatments was evaluated.
(§15) Evaluation was carried out using a scale from 0 to 100. 100 means no emergence of the plants, or complete destruction of at least the aerial moieties, and 0 means no damage, or normal course of growth. A good herbicidal activity is given at values of at least 70 and a very good herbicidal activity is given at values of at least 85.

SETFA [12] = assay: as above; assay type: in vivo, Setaria faberi; settings: post-emergence method; application rate 0.025 kg/ha; scale 0 to 100
Excerpt: as §12, §13, §14, §15

AMBEL [13] = assay: greenhouse experiment, pre-emergence treatment (Use Examples); assay type: in vivo, Ambrosia elatior; settings: pre-emergence method; application rate 0.050 kg/ha; scale 0 to 100
Excerpt: as §12
For the pre-emergence treatment, the active ingredients, which had been suspended or emulsified in water, were applied directly after sowing by means of finely distributing nozzles. The containers were irrigated gently to promote germination and growth and subsequently covered with transparent plastic hoods until the plants had rooted. This cover caused uniform germination of the test plants, unless this has been impaired by the active ingredients.
as §14, §15

CC(C)N(C)S(=O)(=O)NC(=O)c1cc(-n2c(=O)cc(C(F)(F)F)n(C)c2=O)c(F)cc1Cl [B.76, saflufenacil, reference compound]
herbicidal activity against AMBEL found (AMBEL [1]; B.76 6.25 g/ha a.s.): 75% | herbicidal activity against BIDPI found (BIDPI; B.76 6.25 g/ha a.s.): 60% | herbicidal activity against ELEIN found (ELEIN; B.76 6.25 g/ha a.s.): 30% | herbicidal activity against SORHA found (SORHA; B.76 6.25 g/ha a.s.): 0% | herbicidal activity against BRAPL found (BRAPL [2]; B.76 12.5 g/ha a.s.): 30% | herbicidal activity against SETFA found (SETFA [3]; B.76 12.5 g/ha a.s.): 30% | herbicidal activity against ERBVI found (ERBVI [4]; B.76 12.5 g/ha a.s.): 60% | herbicidal activity against SORPHA found (SORPHA; B.76 12.5 g/ha a.s.): 25% | herbicidal activity against CHEAL found (CHEAL; B.76 3.12 g/ha a.s.): 30% | herbicidal activity against AMARE found (AMARE; B.76 3.12 g/ha a.s.): 35%

O=C(O)CNCP(=O)(O)O [B.95, glyphosate, reference compound]
herbicidal activity against BRAPL found (BRAPL [2]; B.95 135 g/ha a.s.): 95% | herbicidal activity against ALOMY found (ALOMY [5]; B.95 135 g/ha a.s.): 80% | herbicidal activity against ECHCG found (ECHCG [6]; B.95 135 g/ha a.s.): 85%

CCC(CC)Nc1c([N+](=O)[O-])cc(C)c(C)c1[N+](=O)[O-] [B.101, pendimethalin, reference compound]
herbicidal activity against ALOMY found (ALOMY [7]; B.101 400 g/ha a.s.): 75% | herbicidal activity against POLCO found (POLCO; B.101 400 g/ha a.s.): 40%

COC[C@H](C)N(C(=O)CCl)c1c(C)csc1C [B.106, dimethenamid-p, reference compound]
herbicidal activity against ECHCG found (ECHCG [8]; B.106 15 g/ha a.s.): 85% | herbicidal activity against SETVI found (SETVI; B.106 15 g/ha a.s.): 70% | herbicidal activity against CHEAL found (CHEAL; B.106 15 g/ha a.s.): 10% | herbicidal activity against AMARE found (AMARE; B.106 15 g/ha a.s.): 75%

Cn1nc(C(F)(F)F)c(CS(=O)(=O)C2=NOC(C)(C)C2)c1OC(F)F [B.116, pyroxasulfone, reference compound]
herbicidal activity against AMBEL found (AMBEL [1]; B.116 6.25 g/ha a.s.): 0% | herbicidal activity against BRAPL found (BRAPL [9]; B.116 6.25 g/ha a.s.): 30% | herbicidal activity against ERBVI found (ERBVI [10]; B.116 6.25 g/ha a.s.): 45%

C#CCN1C(=O)C(F)(F)Oc2cc(F)c(-n3c(=O)n(C)c(=S)n(C)c3=O)cc21 [I.a.35, 1,5-dimethyl-6-thioxo-3-(2,2,7-trifluoro-3-oxo-4-(prop-2-ynyl)-3,4-dihydro-2H-benzo [b][1,4]oxazin-6-yl)-1,3,5-triazinane-2,4-dione]
herbicidal activity against BRAPL (BRAPL [11]): very good (a very good herbicidal activity is given at values of at least 85) | herbicidal activity against SETFA (SETFA [12]): very good (a very good herbicidal activity is given at values of at least 85) | herbicidal activity against AMBEL (AMBEL [13]): very good (a very good herbicidal activity is given at values of at least 85) | herbicidal activity against AMBEL found (AMBEL [1]; I.a.35 12.5 g/ha a.s.): 60% | herbicidal activity against AMBEL found (AMBEL [1]; I.a.35 25 g/ha a.s.): 75% | herbicidal activity against BIDPI found (BIDPI; I.a.35 12.5 g/ha a.s.): 30% | herbicidal activity against ELEIN found (ELEIN; I.a.35 12.5 g/ha a.s.): 45% | herbicidal activity against SORHA found (SORHA; I.a.35 12.5 g/ha a.s.): 60% | herbicidal activity against BRAPL found (BRAPL [2]; I.a.35 12.5 g/ha a.s.): 65% | herbicidal activity against SETFA found (SETFA [3]; I.a.35 12.5 g/ha a.s.): 75% | herbicidal activity against ERBVI found (ERBVI [4]; I.a.35 12.5 g/ha a.s.): 70% | herbicidal activity against SORPHA found (SORPHA; I.a.35 12.5 g/ha a.s.): 80% | herbicidal activity against ALOMY found (ALOMY [5]; I.a.35 12.5 g/ha a.s.): 30% | herbicidal activity against ECHCG found (ECHCG [6]; I.a.35 12.5 g/ha a.s.): 75% | herbicidal activity against ALOMY found (ALOMY [7]; I.a.35 25 g/ha a.s.): 65% | herbicidal activity against POLCO found (POLCO; I.a.35 25 g/ha a.s.): 65% | herbicidal activity against ECHCG found (ECHCG [8]; I.a.35 12.5 g/ha a.s.): 30% | herbicidal activity against SETVI found (SETVI; I.a.35 12.5 g/ha a.s.): 90% | herbicidal activity against CHEAL found (CHEAL; I.a.35 3.12 g/ha a.s.): 85% | herbicidal activity against CHEAL found (CHEAL; I.a.35 6.25 g/ha a.s.): 85% | herbicidal activity against BRAPL found (BRAPL [9]; I.a.35 25 g/ha a.s.): 50% | herbicidal activity against ERBVI found (ERBVI [10]; I.a.35 25 g/ha a.s.): 55% | herbicidal activity against AMARE found (AMARE; I.a.35 3.12 g/ha a.s.): 70%

From US9220268B2, “Herbicidal benzoxazinones” (BASF SE, priority 2009, dated 2015)
